Test results taken from ChEMBL document CHEMBL5046281, “N-Aryl Mercaptopropionamides as Broad-Spectrum Inhibitors of Metallo-β-Lactamases” (J Med Chem, 2022).
Activity calls are given as the source filed them. The rule behind the calls is not given here.

Molecular target: Disintegrin and metalloproteinase domain-containing protein 17 (Homo sapiens) (UniProt P78536)
Sequence (P78536 whole entry, the tested form may be a part): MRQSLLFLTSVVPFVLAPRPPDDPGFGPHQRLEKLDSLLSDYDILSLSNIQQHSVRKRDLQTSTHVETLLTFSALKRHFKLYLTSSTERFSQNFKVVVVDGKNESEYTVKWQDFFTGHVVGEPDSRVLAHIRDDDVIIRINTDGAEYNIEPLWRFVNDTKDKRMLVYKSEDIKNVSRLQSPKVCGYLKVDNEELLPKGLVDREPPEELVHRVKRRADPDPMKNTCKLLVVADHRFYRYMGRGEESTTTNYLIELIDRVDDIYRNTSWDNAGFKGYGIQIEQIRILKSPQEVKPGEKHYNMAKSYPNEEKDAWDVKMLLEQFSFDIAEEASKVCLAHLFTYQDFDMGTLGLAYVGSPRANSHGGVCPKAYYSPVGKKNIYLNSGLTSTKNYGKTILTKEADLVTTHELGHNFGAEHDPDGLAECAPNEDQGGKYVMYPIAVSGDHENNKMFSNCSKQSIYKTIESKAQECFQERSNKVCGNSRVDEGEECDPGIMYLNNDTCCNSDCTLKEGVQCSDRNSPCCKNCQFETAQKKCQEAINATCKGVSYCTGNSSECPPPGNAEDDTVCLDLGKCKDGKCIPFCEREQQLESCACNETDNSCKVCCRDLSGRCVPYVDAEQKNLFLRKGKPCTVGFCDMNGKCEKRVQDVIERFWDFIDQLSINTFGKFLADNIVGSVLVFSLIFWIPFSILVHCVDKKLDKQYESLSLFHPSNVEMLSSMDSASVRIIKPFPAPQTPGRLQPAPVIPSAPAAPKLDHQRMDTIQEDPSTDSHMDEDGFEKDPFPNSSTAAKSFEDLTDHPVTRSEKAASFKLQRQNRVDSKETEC
Experiment: Inhibition of human TACE at 100 uM relative to control
Conditions: not given
In the case of `NC(=O)NS(=O)(=O)c1ccc(NC(=O)CCS)cc1`, the inhibition is reported as < 10%. In the case of `O=C(CCS)Nc1ccccc1C(=O)O`, the inhibition is reported as < 10%.

Molecular target: T1, Matrix metalloproteinase-14 (Homo sapiens, UniProt P50281)
Experiment: Inhibition of human MMP-14 at 100 uM relative to control
Conditions: not given
With `O=C(CCS)Nc1ccc(Cl)c(Cl)c1` the inhibition was 18%. For `NC(=O)NS(=O)(=O)c1ccc(NC(=O)CCS)cc1`, the inhibition was 73%. Work on `O=C(CCS)Nc1ccccc1C(=O)O` yielded an inhibition of 77%.

Test system: Pseudomonas aeruginosa
Experiment: Antibacterial activity against VIM-2 expressing Pseudomonas aeruginosa isolates assessed as inhibition of bacterial growth by microdilution method
Type: functional, organism-based
Conditions: not given
In the case of `O=C(CCS)Nc1ccc(Cl)c(Cl)c1`, the Activity is reported as “inactive”. In the case of `NC(=O)NS(=O)(=O)c1ccc(NC(=O)CCS)cc1`, the Activity is reported as “inactive”. For `O=C(CCS)Nc1ccccc1C(=O)O`, the Activity was “inactive”.

Test system: Escherichia coli
Experiment: Antibacterial activity against IMP-1 expressing Escherichia coli isolates assessed as inhibition of bacterial growth by microdilution method
Type: functional, organism-based
Conditions: not given
With `O=C(CCS)Nc1ccc(Cl)c(Cl)c1` the Activity was “inactive”. With `NC(=O)NS(=O)(=O)c1ccc(NC(=O)CCS)cc1` the Activity was “inactive”. With `O=C(CCS)Nc1ccccc1C(=O)O` the Activity was “inactive”.

Test system: Pseudomonas aeruginosa
Experiment: Inhibition of Pseudomonas aeruginosa quorum sensing system LasB at 100 uM
Conditions: not given
In the case of `O=C(CCS)Nc1ccc(Cl)c(Cl)c1`, the inhibition is reported as “Active”. For `NC(=O)NS(=O)(=O)c1ccc(NC(=O)CCS)cc1`, the inhibition was “Active”.

Molecular target: T2, 72 kDa type IV collagenase (Homo sapiens, UniProt P08253)
Experiment: Inhibition of human MMP-2
Conditions: not given
Target sequence in this assay (P08253 whole entry): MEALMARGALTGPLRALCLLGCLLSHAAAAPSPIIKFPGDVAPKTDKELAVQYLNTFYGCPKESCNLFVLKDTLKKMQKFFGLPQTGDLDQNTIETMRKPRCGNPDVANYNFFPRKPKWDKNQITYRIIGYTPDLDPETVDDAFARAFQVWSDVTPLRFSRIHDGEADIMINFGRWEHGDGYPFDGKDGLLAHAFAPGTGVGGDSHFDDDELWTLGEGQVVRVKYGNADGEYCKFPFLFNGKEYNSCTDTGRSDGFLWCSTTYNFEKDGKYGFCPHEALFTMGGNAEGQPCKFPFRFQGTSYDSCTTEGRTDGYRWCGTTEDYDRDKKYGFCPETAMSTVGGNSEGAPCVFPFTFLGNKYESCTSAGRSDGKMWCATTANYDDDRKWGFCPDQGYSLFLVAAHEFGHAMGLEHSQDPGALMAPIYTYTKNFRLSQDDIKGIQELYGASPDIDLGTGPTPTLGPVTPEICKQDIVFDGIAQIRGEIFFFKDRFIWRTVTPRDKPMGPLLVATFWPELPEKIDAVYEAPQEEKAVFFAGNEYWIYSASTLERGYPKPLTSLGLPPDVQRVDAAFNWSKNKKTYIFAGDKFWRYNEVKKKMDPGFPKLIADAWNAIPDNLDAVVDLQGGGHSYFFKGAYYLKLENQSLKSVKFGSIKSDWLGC
Molecule `NC(=O)NS(=O)(=O)c1ccc(NC(=O)CCS)cc1` has an IC50 of 64 µM.

Molecular target: T1, Matrix metalloproteinase-14
Experiment: Inhibition of human MMP-14
Conditions: not given
With `NC(=O)NS(=O)(=O)c1ccc(NC(=O)CCS)cc1` the IC50 was 31 µM. Molecule `O=C(CCS)Nc1ccccc1C(=O)O` has an IC50 of 12 µM.

Test system: not listed separately
Experiment: Toxicity in zebrafish embryo assessed as maximum tolerated concentration measured up to 120 hrs
Parameters: species or system Danio rerio
Conditions: in vivo, read-out: MTC
In the case of `NC(=O)NS(=O)(=O)c1ccc(NC(=O)CCS)cc1`, the MNTC at 120 h is reported as ≥ 150 µM. With `O=C(CCS)Nc1ccccc1C(=O)O` the MNTC at 120 h was ≥ 150 µM.

Molecular target: Stromelysin-1 (Homo sapiens) (UniProt P08254)
Sequence (P08254 100-477 limits assumed): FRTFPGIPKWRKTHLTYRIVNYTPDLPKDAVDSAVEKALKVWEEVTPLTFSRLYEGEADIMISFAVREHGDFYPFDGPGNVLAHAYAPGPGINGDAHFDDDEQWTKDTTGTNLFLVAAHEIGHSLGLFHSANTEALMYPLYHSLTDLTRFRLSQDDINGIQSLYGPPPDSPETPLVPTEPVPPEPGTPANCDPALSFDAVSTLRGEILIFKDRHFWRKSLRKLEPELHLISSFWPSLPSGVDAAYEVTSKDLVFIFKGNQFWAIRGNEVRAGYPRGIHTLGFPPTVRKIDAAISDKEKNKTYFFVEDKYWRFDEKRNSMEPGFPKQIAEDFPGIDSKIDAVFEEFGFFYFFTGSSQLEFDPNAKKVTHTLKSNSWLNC
Experiment: Inhibition of human MMP-3 at 100 uM relative to control
Conditions: not given
For `O=C(CCS)Nc1ccc(Cl)c(Cl)c1`, the inhibition was < 10%. For `NC(=O)NS(=O)(=O)c1ccc(NC(=O)CCS)cc1`, the inhibition was < 10%. Molecule `O=C(CCS)Nc1ccccc1C(=O)O` has an inhibition of 17%.

Molecular target: T3, Matrilysin (Homo sapiens) (UniProt P09237)
T3 sequence (whole entry): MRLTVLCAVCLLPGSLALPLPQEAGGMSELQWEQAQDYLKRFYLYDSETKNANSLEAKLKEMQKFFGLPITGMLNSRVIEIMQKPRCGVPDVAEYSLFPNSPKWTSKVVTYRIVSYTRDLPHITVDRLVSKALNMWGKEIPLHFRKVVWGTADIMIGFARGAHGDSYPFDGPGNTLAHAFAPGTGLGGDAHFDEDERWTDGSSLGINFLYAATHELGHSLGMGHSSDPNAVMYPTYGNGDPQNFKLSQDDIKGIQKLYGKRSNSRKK
Experiment: Inhibition of human MMP-7 at 100 uM relative to control
Conditions: not given
With `O=C(CCS)Nc1ccc(Cl)c(Cl)c1` the inhibition was < 10%. For `NC(=O)NS(=O)(=O)c1ccc(NC(=O)CCS)cc1`, the inhibition was 32%. With `O=C(CCS)Nc1ccccc1C(=O)O` the inhibition was 11%.

Test system: not listed separately
Experiment: Inhibition of Escherichia coli NDM-1 using fluorocillin as substrate incubated for 30 mins by fluorescence based assay
Conditions: not given
Work on `O=C(CCS)Nc1ccc(Cl)c(Cl)c1` yielded an IC50 of 1.3 µM. For `NC(=O)NS(=O)(=O)c1ccc(NC(=O)CCS)cc1`, the IC50 was 8.6 µM. Work on `O=C(CCS)Nc1ccccc1C(=O)O` yielded an IC50 of 3.4 µM.

Molecular target: Neutrophil collagenase (Homo sapiens) (UniProt P22894)
Sequence (P22894 101-467 limits assumed): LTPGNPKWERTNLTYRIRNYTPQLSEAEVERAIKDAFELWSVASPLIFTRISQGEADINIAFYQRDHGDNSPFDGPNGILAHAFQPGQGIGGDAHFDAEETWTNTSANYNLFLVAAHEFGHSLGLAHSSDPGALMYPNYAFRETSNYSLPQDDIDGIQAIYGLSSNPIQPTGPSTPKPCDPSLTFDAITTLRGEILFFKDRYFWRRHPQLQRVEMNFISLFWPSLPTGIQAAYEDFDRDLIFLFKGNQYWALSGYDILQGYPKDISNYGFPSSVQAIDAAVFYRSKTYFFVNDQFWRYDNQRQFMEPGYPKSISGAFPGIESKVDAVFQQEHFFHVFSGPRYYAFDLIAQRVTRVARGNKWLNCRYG
Experiment: Inhibition of human MMP-8 at 100 uM relative to control
Conditions: not given
With `O=C(CCS)Nc1ccc(Cl)c(Cl)c1` the inhibition was 22%. In the case of `NC(=O)NS(=O)(=O)c1ccc(NC(=O)CCS)cc1`, the inhibition is reported as < 10%. For `O=C(CCS)Nc1ccccc1C(=O)O`, the inhibition was < 10%.

Molecular target: T2, 72 kDa type IV collagenase
Experiment: Inhibition of human MMP-2 at 100 uM relative to control
Conditions: not given
Target sequence in this assay (P08253 110-660 limits assumed): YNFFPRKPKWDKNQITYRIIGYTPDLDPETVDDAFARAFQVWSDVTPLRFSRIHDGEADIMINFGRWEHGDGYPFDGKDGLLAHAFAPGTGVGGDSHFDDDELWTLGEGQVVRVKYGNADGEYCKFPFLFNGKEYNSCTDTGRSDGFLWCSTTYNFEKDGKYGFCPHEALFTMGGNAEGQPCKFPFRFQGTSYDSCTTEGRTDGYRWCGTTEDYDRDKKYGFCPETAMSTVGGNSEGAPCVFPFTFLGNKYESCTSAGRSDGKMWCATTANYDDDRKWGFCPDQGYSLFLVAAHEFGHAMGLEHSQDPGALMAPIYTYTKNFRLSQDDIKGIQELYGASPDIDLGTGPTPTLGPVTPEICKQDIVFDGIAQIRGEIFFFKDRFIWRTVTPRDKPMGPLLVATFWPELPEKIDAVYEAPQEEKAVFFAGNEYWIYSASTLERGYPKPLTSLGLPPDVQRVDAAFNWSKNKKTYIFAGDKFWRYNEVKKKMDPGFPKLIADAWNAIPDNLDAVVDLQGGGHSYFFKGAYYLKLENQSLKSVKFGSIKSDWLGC
In the case of `O=C(CCS)Nc1ccc(Cl)c(Cl)c1`, the inhibition is reported as 14%. `NC(=O)NS(=O)(=O)c1ccc(NC(=O)CCS)cc1` gave an inhibition of 88%. For `O=C(CCS)Nc1ccccc1C(=O)O`, the inhibition was < 10%.

Test system: HepG2
Experiment: Cytotoxicity against human HepG2 cells assessed as reduction in cell viability at 100 uM relative to control
Type: toxicity, cell-based
Conditions: hepg2, 100 µM
With `O=C(CCS)Nc1ccc(Cl)c(Cl)c1` the Activity was < 10%. With `NC(=O)NS(=O)(=O)c1ccc(NC(=O)CCS)cc1` the Activity was < 10%. In the case of `O=C(CCS)Nc1ccccc1C(=O)O`, the Activity is reported as < 10%.

Test system: not listed separately
Experiment: Inhibition of Escherichia coli IMP-7 using fluorocillin as substrate incubated for 30 mins by fluorescence based assay
Conditions: not given
With `O=C(CCS)Nc1ccc(Cl)c(Cl)c1` the IC50 was 5 µM. For `NC(=O)NS(=O)(=O)c1ccc(NC(=O)CCS)cc1`, the IC50 was 12.6 µM. Molecule `O=C(CCS)Nc1ccccc1C(=O)O` has an IC50 of 4.1 µM.

Test system: not listed separately
Experiment: Lipophilicity, log D of the compound at pH 7.4 by HPLC-MS analysis
Type: physicochemical
Conditions: buffer
Work on `O=C(CCS)Nc1ccc(Cl)c(Cl)c1` yielded a logD of 5.34. Molecule `NC(=O)NS(=O)(=O)c1ccc(NC(=O)CCS)cc1` has a logD of -1.69. For `O=C(CCS)Nc1ccccc1C(=O)O`, the logD was -0.92.

Molecular target: T4, Interstitial collagenase (Homo sapiens) (UniProt P03956)
T4 sequence (whole entry): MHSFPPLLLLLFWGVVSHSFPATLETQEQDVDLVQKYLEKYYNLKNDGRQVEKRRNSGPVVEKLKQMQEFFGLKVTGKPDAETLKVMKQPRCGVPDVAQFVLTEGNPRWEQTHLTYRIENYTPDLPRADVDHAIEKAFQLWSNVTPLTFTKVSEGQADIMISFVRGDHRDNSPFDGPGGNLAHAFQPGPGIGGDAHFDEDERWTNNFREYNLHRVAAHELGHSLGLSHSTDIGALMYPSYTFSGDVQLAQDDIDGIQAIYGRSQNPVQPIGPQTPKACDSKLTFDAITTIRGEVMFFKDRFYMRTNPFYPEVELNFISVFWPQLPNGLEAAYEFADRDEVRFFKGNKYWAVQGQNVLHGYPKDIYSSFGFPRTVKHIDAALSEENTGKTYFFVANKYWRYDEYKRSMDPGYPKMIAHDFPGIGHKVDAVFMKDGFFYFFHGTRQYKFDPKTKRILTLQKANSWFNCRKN
Experiment: Inhibition of human MMP-1 at 100 uM relative to control
Conditions: not given
For `O=C(CCS)Nc1ccc(Cl)c(Cl)c1`, the inhibition was < 10%. In the case of `NC(=O)NS(=O)(=O)c1ccc(NC(=O)CCS)cc1`, the inhibition is reported as < 10%. For `O=C(CCS)Nc1ccccc1C(=O)O`, the inhibition was < 10%.

Test system: Escherichia coli
Experiment: Antibacterial activity against VIM-1 expressing Escherichia coli isolates assessed as inhibition of bacterial growth by microdilution method
Type: functional, organism-based
Conditions: not given
In the case of `O=C(CCS)Nc1ccc(Cl)c(Cl)c1`, the Activity is reported as “inactive”. For `NC(=O)NS(=O)(=O)c1ccc(NC(=O)CCS)cc1`, the Activity was “inactive”. In the case of `O=C(CCS)Nc1ccccc1C(=O)O`, the Activity is reported as “inactive”.

Test system: Escherichia coli
Experiment: Antibacterial activity against NDM-1 expressing Escherichia coli isolates assessed as inhibition of bacterial growth by microdilution method
Type: functional, organism-based
Conditions: not given
With `O=C(CCS)Nc1ccc(Cl)c(Cl)c1` the Activity was “inactive”. In the case of `NC(=O)NS(=O)(=O)c1ccc(NC(=O)CCS)cc1`, the Activity is reported as “inactive”. In the case of `O=C(CCS)Nc1ccccc1C(=O)O`, the Activity is reported as “inactive”.

Test system: A549
Experiment: Cytotoxicity against human A549 cells assessed as reduction in cell viability at 100 uM relative to control
Type: toxicity, cell-based
Conditions: a549, 100 µM
For `O=C(CCS)Nc1ccc(Cl)c(Cl)c1`, the Activity was < 10%. For `NC(=O)NS(=O)(=O)c1ccc(NC(=O)CCS)cc1`, the Activity was < 10%. For `O=C(CCS)Nc1ccccc1C(=O)O`, the Activity was < 10%.

Test system: HEK293
Experiment: Cytotoxicity against human HEK293 cells assessed as reduction in cell viability at 100 uM relative to control
Type: toxicity, cell-based
Conditions: hek293, 100 µM
In the case of `O=C(CCS)Nc1ccc(Cl)c(Cl)c1`, the Activity is reported as < 10%. For `NC(=O)NS(=O)(=O)c1ccc(NC(=O)CCS)cc1`, the Activity was < 10%. For `O=C(CCS)Nc1ccccc1C(=O)O`, the Activity was < 10%.

Molecular target: BlaVIM-1 (Escherichia coli, UniProt Q8GDC1)
Experiment: Inhibition of Escherichia coli VIM-1 using fluorocillin as substrate incubated for 30 mins by fluorescence based assay
Conditions: not given
Molecule `O=C(CCS)Nc1ccc(Cl)c(Cl)c1` has an IC50 of 0.1 µM. In the case of `NC(=O)NS(=O)(=O)c1ccc(NC(=O)CCS)cc1`, the IC50 is reported as 2 µM. `O=C(CCS)Nc1ccccc1C(=O)O` showed an IC50 of 2.2 µM.
